Source: ChEMBL document CHEMBL1123097, “Structure-activity relationship in PAF-acether. 2. rac-1-O-Octadecyl-2-O-acetyl-3-O-[gamma-(dimethylamino)propyl]glycerol ” (J Med Chem, 1985)

Legend:
Cavia porcellus [1] = test: Compound was evaluated in anesthetized guinea pigs, for the percentage drop in platelet counts between 2 min before and 1 min after injection at 520ng/kg; format: functional
Oryctolagus cuniculus [2] = species on record: Oryctolagus cuniculus; test: In vitro platelet aggregating activity in washed rabbit platelets; format: functional
Cavia porcellus [3] = test: Compound was evaluated in anesthetized guinea pigs, for the percentage drop in platelet counts between 2 min before and 1 min after injection at 33 ng/kg; format: functional
Oryctolagus cuniculus [4] = species on record: Oryctolagus cuniculus; test: In vitro platelet aggregating activity in washed rabbit platelets; No lysis observed; format: functional
Cavia porcellus [5] = test: Compound was evaluated in anesthetized guinea pigs, for the percentage drop in platelet counts between 2 min before and 1 min after injection at 66 ng/kg; format: functional
Cavia porcellus [6] = test: Compound was evaluated in anesthetized guinea pigs, for the percentage drop in platelet counts between 2 min before and 1 min after injection; format: functional
Cavia porcellus [7] = test: Compound was evaluated in anesthetized guinea pigs, for the percentage decrease of bronchoconstrictive activity; format: functional, Lung; set-up: scale not given: the % may be the effect or the level left

CCCCCCCCCCCCCCCCCCOCC(O)COCCC[N+](C)(C)C.[OH-] (stereo not given)
Aggregation (Cavia porcellus [1]): 100%
EC50 (Oryctolagus cuniculus [2]): > 4000 nM

CCCCCCCCCCCCCCCCCCOC[C@H](COP(=O)([O-])OCC[N+](C)(C)C)OC(C)=O
EC50 (Oryctolagus cuniculus [2]): 0.057 nM
Aggregation (Cavia porcellus [3]): 48%

CCCCCCCCCCCCCCCCCCOCC(COCCCN(C)C)OC(C)=O.Cl (stereo not given)
EC50 (Oryctolagus cuniculus [4]): 170 nM
Aggregation (Cavia porcellus [5]): 0%
Aggregation (Cavia porcellus [3]): 0%

CCCCCCCCCCCCCCCCCCOCC(COP(=O)([O-])OCC[N+](C)(C)C)OC(C)=O (racemic)
Aggregation (Cavia porcellus [6]): 0%
EC50 (Oryctolagus cuniculus [2]): 0.22 nM
Activity (Cavia porcellus [7]): 100%
